# Molecular target: Methionine aminopeptidase 2 (Homo sapiens) (UniProt P50579)
# Experiment: Inhibition of human METAP2 using Met-Pro-Arg-pNa substrate by para-nitroanilide chromophore release detection assay
# Sequence of Methionine aminopeptidase 2 (Homo sapiens) (P50579 whole entry, looked up): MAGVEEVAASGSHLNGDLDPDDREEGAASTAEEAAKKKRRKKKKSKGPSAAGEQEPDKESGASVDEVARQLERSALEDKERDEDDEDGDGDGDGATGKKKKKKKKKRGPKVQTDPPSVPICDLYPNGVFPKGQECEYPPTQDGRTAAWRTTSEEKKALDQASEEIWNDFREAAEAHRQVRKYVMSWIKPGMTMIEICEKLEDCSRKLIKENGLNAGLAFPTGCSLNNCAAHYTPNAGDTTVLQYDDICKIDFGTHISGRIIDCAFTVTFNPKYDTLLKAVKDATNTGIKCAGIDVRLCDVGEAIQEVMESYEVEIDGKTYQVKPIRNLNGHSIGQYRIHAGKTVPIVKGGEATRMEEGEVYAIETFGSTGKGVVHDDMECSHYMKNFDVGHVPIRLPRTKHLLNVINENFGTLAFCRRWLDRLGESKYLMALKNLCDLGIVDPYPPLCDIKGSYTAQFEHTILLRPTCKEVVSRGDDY
row,Compound,IC50 [µM]
1,CN1CCN(c2ccc(-c3cnc4c5[nH]ncc5c(=O)n(CC(F)(F)F)c4c3)cn2)CC1,5
2,CN1CCN(c2cncc(-c3cnc4c5[nH]ncc5c(=O)n(CC(F)(F)F)c4c3)c2)CC1,24
3,O=c1c2cn[nH]c2c2cnc(-c3ncccc3Cl)cc2n1CC(F)(F)F,13
4,O=c1c2cn[nH]c2c2ncc(-c3ccccc3C(F)(F)F)cc2n1CC(F)(F)F,20
